Assay results from US20260258402A1, “DEVICE FOR DETERMINING MOLECULAR INTERACTIONS” (Depixus SAS, priority 2023, published 2026).

B1: APFL: APFL protein that bridges Ku70/80 complexes in the NHEJ complex (protein, UniProt Q8IW19 1-511, looked up)
Aprataxin and PNK-like factor: MSGGFELQPRDGGPRVALAPGETVIGRGPLLGITDKRVSRRHAILEVAGGQLRIKPIHTNPCFYQSSEKSQLLPLKPNLWCYLNPGDSFSLLVDKYIFRILSIPSEVEMQCTLRNSQVLDEDNILNETPKSPVINLPHETTGASQLEGSTEIAKTQMTPTNSVSFLGENRDCNKQQPILAERKRILPTWMLAEHLSDQNLSVPAISGGNVIQGSGKEEICKDKSQLNTTQQGRRQLISSGSSENTSAEQDTGEECKNTDQEESTISSKEMPQSFSAITLSNTEMNNIKTNAQRNKLPIEELGKVSKHKIATKRTPHKEDEAMSCSENCSSAQGDSLQDESQGSHSESSSNPSNPETLHAKATDSVLQGSEGNKVKRTSCMYGANCYRKNPVHFQHFSHPGDSDYGGVQIVGQDETDDRPECPYGPSCYRKNPQHKIEYRHNTLPVRNVLDEDNDNVGQPNEYDLNDSFLDDEEEDYEPTDEDSDWEPGKEDEEKEDVEELLKEAKRFMKRK

What was measured:
[1] = molecular target: E3 ligase CEREBLON (in complex with its binding partner DDB1), the neo-substrate IKAROS1 (Homo sapiens, UniProt Q13422+Q96SW2)
Method: (§3) Briefly, a reference elongation length of a nucleic acid scaffold present in a flow cell was determined at a constant force. Next, a single stranded polynucleotide containing the complementary sequence of the first molecule binding sequence as well as an amine group at the 5′ end (SEQ ID NO: 23) was coupled to candidate protein (CRBN and its binding partner DDB1 that form the E3 ligase complex) by a covalent conjugation (esterification via EDC). In parallel, a second single stranded polynucleotide containing the complementary sequence of the second molecule binding sequence as well as an amine group at the 3′ end (SEQ ID NO: 34) was coupled to candidate protein (GSTP1 neo-substrat of CRBN) by a covalent conjugation (esterification via EDC). A first candidate molecule conjugated to a first polynucleotide and a second candidate molecule covalently conjugated to a second polynucleotide are sequentially injected into the flow cell to anchor them on to the nucleic acid scaffold and form a screening nucleic acid scaffold (FIGS. 27 and 28). Then, a force of 2 pN was applied to determine the maximal elongation length. The force was then reduced to 0.01 pN to allow the two proteins to interact. If the two candidate molecules have binding interaction between them, upon increasing the force back to 2 pN, the elongation observed would be less than the full extension of the screening nucleic acid scaffold. If the two candidate molecules have no binding interaction between them or weaker binding interaction between them than the applied force, the nucleic acid scaffold would fully stretch. The two proteins are not believed to have a native interaction. […] Various concentration of compound can be performed to measure the Kon and Koff of interaction in presence of the compound.

[2] = test system: double stranded blunt end substrates; experiment: NHEJ complex formation on two double stranded blunt end substrates on the scaffold (force cycles); format: binding; conditions: for role in the complex formed on the blunt end adapters: FIG. 25B, Ku70/80 and APFL injected together, 2 pN
Method: The system described in Example 1 and Example 2 was used for determining binding kinetics between two substrates and proteins that form a Non-Homologous End Joining (NHEJ) complex. The NHEJ complex recognizes double stranded blunt ends and repair these lesions in the cell. Accordingly, two substrates, each comprising a single stranded carrier polynucleotide and a candidate molecule comprising a double stranded blunt end were prepared, wherein the single stranded carrier polynucleotide was complementary to a molecule binding sequence of a nucleic acid scaffold. The double stranded blunt end was prepared by annealing twice two oligos together (SEQ ID NOS: 14 and 15, as well as SEQ ID NOS: 17 and 18 at 10 μM each in PBS).
(§1) Because each of the proposed sequences contained the glue sequence for first and second molecule binding sequence respectively, the substrates could be directed to a specific location on the nucleic acid scaffold. Accordingly, the two substrates for the NHEJ complex were anchored to two molecule binding sequences of the nucleic acid scaffold to form a screening nucleic acid scaffold. The excess substrates were washed away. A reference elongation length of a screening nucleic acid scaffold was determined by applying 2 pN force in the absence of the substrates.
(§2) Next, two candidate proteins, KU70/80 complex as well as the APFL protein together into PBS 1X, were injected within the flow cell. The flow was stop and force cycles experiments were initiated. Blockage traces were recorded at 0.1 pN and 2 pN. At 0.1 pN force, the screening nucleic acid scaffold was unstructured, which allowed the two blunt ends to be brought in close proximity. […] Because the method was a non-destructive process, the force cycles were repeated multiple times to further probe the interaction.
The system described in Example 1 and Example 2 was used for determining binding kinetics between two substrates and proteins that form a Non-Homologous End Joining (NHEJ) complex. The NHEJ complex recognizes double stranded blunt ends and repairs these lesions in the cell. Accordingly, two substrates, each comprising a single stranded carrier polynucleotide and a candidate molecule comprising a double stranded blunt end were prepared, wherein the single stranded carrier polynucleotide was complementary to a molecule binding sequence of a nucleic acid scaffold. The two double stranded blunt end adapters were prepared by annealing in two separate tubes two oligos together (SEQ ID NOS: 14 and 15, as well as SEQ ID NOS: 17 and 18 at 10 μM each in a buffer containing: 50 mM NaCl, 10 mM Tris-HCl, 10 mM MgCl2, 1 mM DTT at pH 7.9 @ 25° C.).
as §1, with “Because” for “Because each of”, “system was based on” for “sequences contained”, “protein complex recognizing blunt ends DNA,” for “glue sequence for first and second molecule binding sequence respectively,”, “applying force cycles at three step forces: 0.01,” for “applying”, “2 and 20” for “2”
as §2, with “a buffer containing: 20 mM Hepes-KOH PH7.8, 100 mM KCL, 5 mM MgCl2, 1 mM DTT, 0.5 mg/mL BSA, and they” for “PBS 1X,”, “Force cycles” for “Blockage traces”, “were the force varies between three plateau: 0.01 pN, 2” for “at 0.1”, “20 pN (FIG. 25A).” for “2 pN.”, “0.01” for “0.1”

[3] = molecular target: E3 ligase CEREBLON (in complex with its binding partner DDB1), the neo-target GSPT1 (Homo sapiens, UniProt P15170+Q96SW2); experiment: Tertiary complex formation between CRBN/DDB1 and GSPT1 with a molecular glue, on the nucleic acid scaffold (force cycles); conditions: for formation / stabilization of the tertiary complex CEREBLON-DDB1 / GSPT1 in the presence of the molecular glue: FIG. 27 and 28, force reduced to 0.01 pN to allow interaction
Method: as §3

[4] = Example 3, both proteins injected together in PBS 1X, force cycles 0.1 pN and 2 pN
[5] = Example 12, both proteins injected together, force cycles 0.01, 2 and 20 pN

Sequence of E3 ligase CEREBLON (in complex with its binding partner DDB1), the neo-substrate IKAROS1 (Q13422 whole entry): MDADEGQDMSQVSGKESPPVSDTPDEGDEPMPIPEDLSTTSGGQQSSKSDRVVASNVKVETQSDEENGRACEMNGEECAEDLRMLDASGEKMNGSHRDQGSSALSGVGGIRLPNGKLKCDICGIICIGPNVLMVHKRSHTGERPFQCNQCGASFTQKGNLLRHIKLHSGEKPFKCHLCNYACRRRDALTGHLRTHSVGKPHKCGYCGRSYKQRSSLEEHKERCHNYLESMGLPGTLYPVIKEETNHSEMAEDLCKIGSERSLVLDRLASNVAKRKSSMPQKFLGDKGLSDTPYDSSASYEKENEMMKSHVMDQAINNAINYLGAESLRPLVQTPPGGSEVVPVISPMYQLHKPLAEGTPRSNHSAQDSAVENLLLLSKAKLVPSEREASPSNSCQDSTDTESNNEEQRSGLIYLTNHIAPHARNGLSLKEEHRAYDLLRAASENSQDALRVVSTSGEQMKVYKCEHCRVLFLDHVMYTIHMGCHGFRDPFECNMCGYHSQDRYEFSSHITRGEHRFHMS
Sequence of E3 ligase CEREBLON (in complex with its binding partner DDB1), the neo-substrate IKAROS1 (Q16531 whole entry, further chain): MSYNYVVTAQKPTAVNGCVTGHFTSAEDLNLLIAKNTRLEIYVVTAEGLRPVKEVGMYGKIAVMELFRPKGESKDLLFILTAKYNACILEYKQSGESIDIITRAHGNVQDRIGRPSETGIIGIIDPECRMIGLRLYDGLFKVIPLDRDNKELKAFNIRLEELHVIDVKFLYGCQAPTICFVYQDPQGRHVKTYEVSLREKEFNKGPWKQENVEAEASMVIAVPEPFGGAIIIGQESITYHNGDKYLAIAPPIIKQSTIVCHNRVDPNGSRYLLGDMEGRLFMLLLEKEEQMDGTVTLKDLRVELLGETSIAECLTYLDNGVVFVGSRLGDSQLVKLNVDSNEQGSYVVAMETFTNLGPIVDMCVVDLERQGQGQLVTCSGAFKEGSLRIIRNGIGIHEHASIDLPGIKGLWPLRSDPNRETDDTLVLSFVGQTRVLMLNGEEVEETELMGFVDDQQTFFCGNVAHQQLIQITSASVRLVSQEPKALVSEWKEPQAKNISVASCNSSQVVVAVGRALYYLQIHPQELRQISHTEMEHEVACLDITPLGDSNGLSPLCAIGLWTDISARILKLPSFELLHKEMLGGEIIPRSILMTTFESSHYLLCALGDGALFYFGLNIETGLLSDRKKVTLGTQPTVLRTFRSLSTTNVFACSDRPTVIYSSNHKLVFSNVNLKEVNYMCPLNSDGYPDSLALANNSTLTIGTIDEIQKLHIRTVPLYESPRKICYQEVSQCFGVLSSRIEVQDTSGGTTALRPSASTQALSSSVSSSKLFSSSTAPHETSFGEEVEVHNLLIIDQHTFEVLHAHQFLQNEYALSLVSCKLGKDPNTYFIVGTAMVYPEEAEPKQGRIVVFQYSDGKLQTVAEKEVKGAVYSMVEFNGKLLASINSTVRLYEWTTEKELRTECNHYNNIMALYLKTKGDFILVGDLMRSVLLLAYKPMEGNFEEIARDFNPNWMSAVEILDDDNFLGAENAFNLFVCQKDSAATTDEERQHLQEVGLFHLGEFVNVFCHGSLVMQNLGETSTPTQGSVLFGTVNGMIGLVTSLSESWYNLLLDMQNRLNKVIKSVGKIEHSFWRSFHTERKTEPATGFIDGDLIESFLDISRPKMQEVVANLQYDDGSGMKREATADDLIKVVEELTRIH
Sequence of E3 ligase CEREBLON (in complex with its binding partner DDB1), the neo-substrate IKAROS1 (Q96SW2 whole entry): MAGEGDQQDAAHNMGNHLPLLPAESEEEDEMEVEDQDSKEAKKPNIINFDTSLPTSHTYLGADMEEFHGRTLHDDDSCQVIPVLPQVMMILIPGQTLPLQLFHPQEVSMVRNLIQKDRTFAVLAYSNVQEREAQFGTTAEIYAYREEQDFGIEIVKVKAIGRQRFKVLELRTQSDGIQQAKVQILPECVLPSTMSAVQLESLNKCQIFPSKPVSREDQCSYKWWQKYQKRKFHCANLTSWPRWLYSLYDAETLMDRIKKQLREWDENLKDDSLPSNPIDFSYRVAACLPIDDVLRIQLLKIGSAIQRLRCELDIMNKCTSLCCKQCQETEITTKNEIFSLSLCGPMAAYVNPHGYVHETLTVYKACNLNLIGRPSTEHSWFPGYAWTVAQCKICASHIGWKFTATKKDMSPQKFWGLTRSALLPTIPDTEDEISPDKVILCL
Sequence of E3 ligase CEREBLON (in complex with its binding partner DDB1), the neo-target GSPT1 (Q96SW2 whole entry): as above
Sequence of E3 ligase CEREBLON (in complex with its binding partner DDB1), the neo-target GSPT1 (Q16531 whole entry partner): as the sequence (Q16531 whole entry, further chain) above
Sequence of E3 ligase CEREBLON (in complex with its binding partner DDB1), the neo-target GSPT1 (P15170 whole entry): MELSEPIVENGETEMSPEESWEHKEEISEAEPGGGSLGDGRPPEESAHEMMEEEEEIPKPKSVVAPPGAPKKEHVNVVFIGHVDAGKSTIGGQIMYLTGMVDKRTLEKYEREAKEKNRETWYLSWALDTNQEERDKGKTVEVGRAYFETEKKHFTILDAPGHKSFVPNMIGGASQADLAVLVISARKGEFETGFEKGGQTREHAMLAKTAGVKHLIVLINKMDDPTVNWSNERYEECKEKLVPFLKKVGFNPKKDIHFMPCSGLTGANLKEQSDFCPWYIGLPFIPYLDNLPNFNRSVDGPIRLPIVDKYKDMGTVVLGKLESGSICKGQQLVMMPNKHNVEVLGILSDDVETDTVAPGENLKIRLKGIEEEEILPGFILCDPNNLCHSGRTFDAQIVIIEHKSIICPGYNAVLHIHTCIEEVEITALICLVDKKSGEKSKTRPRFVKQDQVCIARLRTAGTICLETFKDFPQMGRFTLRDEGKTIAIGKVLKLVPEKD

| Molecule | blockage of scaffold stretching (complex on the two blunt end substrates) [2, 4] | blockage of scaffold stretching (complex on the two blunt end substrates) [2, 5] | role in the complex formed on the blunt end adapters [2] | formation / stabilization of the tertiary complex CEREBLON-DDB1 / GSPT1 in the presence of the molecular glue [3] | other results |
| --- | --- | --- | --- | --- | --- |
| Nc1cccc2c1C(=O)N(C1CCC(=O)NC1=O)C2=O (centres unmarked) [pomalidomide] | – | – | – | – | force the tertiary complex can sustain ([1]; FIG. 29): up to 2 pN; formation of the tertiary complex CEREBLON-DDB1 / IKAROS1 upon addition of the molecular glue ([1]; FIG. 29): strong tertiary complex is formed; interaction between CRBN E3 ligase and IKZF1 in presence of the compound ([1]; compound at 1 nM): the interaction was observed |
| KU70/80: KU70/80 complex, which binds at the double stranded breaks (NHEJ) | one or more transient blockages were observed | one or more transient blockages were observed | form at the blunt end of both adapters | – | – |
| O=C1CCC(N2C(=O)c3ccccc3C2=O)C(=O)N1 (centres unmarked) [thalidomide] | – | – | – | possible to observe formation of the tertiary complex | strength of the tertiary complex interaction (in words) ([3]; FIG. 28, compared with CC885): the interaction is weaker and can be broken even at low force |
| Cc1ccc(NC(=O)NCc2ccc3c(c2)CN(C2CCC(=O)NC2=O)C3=O)cc1Cl (centres unmarked) [CC885] | – | – | – | greatly stabilizes the complex | force needed to break the tertiary complex ([3]; FIG. 27, CEREBLON-DDB1 / GSPT1): 20 pN; time to reform the complex when the force is reduced to 0.01 pN ([3]; FIG. 27, after breaking at 20 pN): few second |
| B1 | one or more transient blockages were observed | one or more transient blockages were observed | bridges these complexes | – | – |
